The record followed here is patent US12570610B2, “Macromolecule-supported aminobenzazepine compounds” (Bolt Biotherapeutics, Inc., priority 2019, dated 2026).

Each structure is given as a SMILES string.

One experiment concerns the target T1, human TLR7 (Homo sapiens, UniProt Q9NYK1).
T1 construct: host or cells: HEK293 reporter cells
T1 sequence (Q9NYK1 27-1049): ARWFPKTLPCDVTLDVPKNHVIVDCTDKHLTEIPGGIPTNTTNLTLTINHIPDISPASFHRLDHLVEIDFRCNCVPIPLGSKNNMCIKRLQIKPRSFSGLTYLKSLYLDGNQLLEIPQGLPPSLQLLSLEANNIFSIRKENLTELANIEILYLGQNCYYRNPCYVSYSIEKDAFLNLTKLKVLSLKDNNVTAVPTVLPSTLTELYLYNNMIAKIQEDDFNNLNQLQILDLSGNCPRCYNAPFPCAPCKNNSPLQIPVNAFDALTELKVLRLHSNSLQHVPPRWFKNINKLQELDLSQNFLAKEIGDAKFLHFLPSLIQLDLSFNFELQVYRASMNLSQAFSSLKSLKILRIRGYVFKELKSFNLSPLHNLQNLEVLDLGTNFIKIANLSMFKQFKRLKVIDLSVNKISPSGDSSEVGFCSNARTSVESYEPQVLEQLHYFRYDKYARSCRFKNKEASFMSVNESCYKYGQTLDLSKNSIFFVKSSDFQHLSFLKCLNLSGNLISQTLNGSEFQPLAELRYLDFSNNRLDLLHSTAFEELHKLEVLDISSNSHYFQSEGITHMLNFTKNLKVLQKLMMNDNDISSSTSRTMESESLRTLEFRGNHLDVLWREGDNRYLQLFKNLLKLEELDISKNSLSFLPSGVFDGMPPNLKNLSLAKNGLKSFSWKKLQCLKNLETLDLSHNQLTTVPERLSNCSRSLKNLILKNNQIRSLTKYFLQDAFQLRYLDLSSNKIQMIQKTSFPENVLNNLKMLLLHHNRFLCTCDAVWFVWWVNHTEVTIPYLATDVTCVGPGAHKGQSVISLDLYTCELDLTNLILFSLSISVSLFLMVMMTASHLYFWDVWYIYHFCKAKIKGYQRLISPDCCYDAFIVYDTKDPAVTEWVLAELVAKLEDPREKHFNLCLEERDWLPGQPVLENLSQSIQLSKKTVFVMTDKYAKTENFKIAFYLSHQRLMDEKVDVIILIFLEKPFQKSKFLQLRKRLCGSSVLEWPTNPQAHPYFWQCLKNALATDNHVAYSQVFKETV
The experiment can be described thus: HEK293 NFKB reporter cells expressing human TLR7 (HEK Reporter Assay). It is filed as cell-based. The note with it: read-out: HEK293 hTLR7 EC50. The procedure: (§1) Each compound was synthesized and purified by the methods in the Examples provided herein, characterized by mass spectrometry, and shown to have the mass indicated. Activity against HEK293 NFKB reporter cells expressing human TLR7 or human TLR8 was measured according to method described in Example 67.
(§2) Example 67: HEK Reporter Assay
(§3) HEK293 reporter cells expressing human TLR7 or human TLR8 were purchased from Invivogen and vendor protocols were followed for cellular propagation and experimentation. Briefly, cells were grown to 80-85% confluence at 5% CO2 in DMEM supplemented with 10% FBS, Zeocin, and Blasticidin. Cells were then seeded in 96-well flat plates at 4×10^4 cells/well with substrate containing HEK detection medium and immunostimulatory molecules. Activity was measured using a plate reader at 620-655 nm wavelength.

The next experiment deals with T2, human TLR8 (Homo sapiens, UniProt Q9NR97).
T2 construct: host or cells: HEK293 reporter cells
T2 sequence (Q9NR97 27-1041): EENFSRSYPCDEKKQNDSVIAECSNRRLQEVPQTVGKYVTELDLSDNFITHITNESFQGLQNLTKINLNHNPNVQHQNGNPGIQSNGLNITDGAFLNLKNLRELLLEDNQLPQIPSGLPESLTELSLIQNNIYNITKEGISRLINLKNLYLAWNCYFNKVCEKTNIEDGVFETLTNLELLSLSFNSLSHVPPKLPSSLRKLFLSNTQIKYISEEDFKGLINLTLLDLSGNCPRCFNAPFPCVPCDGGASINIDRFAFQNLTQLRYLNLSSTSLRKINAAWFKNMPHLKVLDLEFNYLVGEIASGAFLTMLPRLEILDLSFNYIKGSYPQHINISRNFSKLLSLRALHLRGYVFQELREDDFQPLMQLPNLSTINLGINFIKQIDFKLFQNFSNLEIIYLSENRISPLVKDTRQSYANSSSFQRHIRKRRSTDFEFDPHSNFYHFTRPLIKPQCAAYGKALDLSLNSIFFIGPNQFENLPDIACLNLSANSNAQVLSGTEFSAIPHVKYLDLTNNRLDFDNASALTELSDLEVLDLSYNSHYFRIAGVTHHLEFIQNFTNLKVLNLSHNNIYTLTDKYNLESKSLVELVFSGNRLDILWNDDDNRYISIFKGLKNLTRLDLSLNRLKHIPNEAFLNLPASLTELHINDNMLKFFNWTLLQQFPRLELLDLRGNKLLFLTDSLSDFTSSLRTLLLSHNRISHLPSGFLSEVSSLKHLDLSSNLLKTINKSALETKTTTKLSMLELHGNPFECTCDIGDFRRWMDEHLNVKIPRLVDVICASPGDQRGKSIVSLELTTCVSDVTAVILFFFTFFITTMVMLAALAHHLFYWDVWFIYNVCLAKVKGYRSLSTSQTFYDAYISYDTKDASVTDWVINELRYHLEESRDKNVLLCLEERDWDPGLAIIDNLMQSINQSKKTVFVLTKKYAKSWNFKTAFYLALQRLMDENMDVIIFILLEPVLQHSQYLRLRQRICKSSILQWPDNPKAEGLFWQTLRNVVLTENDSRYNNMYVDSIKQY
Put plainly: HEK293 NFKB reporter cells expressing human TLR8 (HEK Reporter Assay). The experiment is classed as cell-based. The following applies: read-out: HEK293 hTLR8 EC50. On the procedure: as §1, §2, §3
On the technique in general: Reporter assays use an easily measured gene product as a stand-in for the process of interest.

With `CCCN(CCC)C(=O)C1=Cc2ccc(-c3cccc(S(=O)(=O)Nc4nccs4)c3)cc2N=C(N)C1` [Bz-35], the concentration giving a half-maximal response (EC50) on human TLR7 and on human TLR8 was above 9 µM in each case.
As for `CCCN(CCC)C(=O)C1=Cc2ccc(-c3cccc(S(=O)(=O)NC(=O)c4ccccc4)c3)cc2N=C(N)C1` [Bz-37], the EC50 on human TLR7 and on human TLR8 was above 9 µM each time.
Consider `CCCN(CCC)C(=O)C1=Cc2ccc(-c3cc(C(F)(F)F)cc(S(=O)(=O)N4CC(CN(C)C)C4)c3)cc2N=C(N)C1` [Bz-40], for which the figures for the EC50 at human TLR7 and on human TLR8 were 0.332 µM and above 9 µM, respectively.
The like results for `CCCN(CCc1c[nH]cn1)C(=O)C1=Cc2ccc(-c3cccc(S(=O)(=O)N4CC(CO)C4)c3)cc2N=C(N)C1` [Bz-41] were, in that order, above 9 µM and above 9 µM.
As to `CCCN(Cc1ccc(CN2CCN(C(=O)OC(C)(C)C)CC2)cc1)C(=O)C1=Cc2ccc(-c3cccc(S(=O)(=O)N4CC(CO)C4)c3)cc2N=C(N)C1` [Bz-44], on human TLR8, the concentration giving a half-maximal response (EC50) worked out at 1.02 µM.
As to `CCCN(CCC)C(=O)C1=Cc2ccc(-c3c(C)n[nH]c3C)cc2N=C(N)C1` [Bz-45], the concentration for a half-maximal effect (EC50) at human TLR7 was above 9 µM.
As for `CCN(CC)C(=O)C1=Cc2ccc(-c3cccc(S(=O)(=O)N4CC(CO)C4)c3)cc2N=C(N)C1` [Bz-50], the concentration for a half-maximal effect (EC50) at human TLR8 was above 9 µM.
`CCCNC(=O)C1=Cc2ccc(-c3cccc(S(=O)(=O)N4CC(CO)C4)c3)cc2N=C(N)C1` [Bz-58]: the EC50 at human TLR7 and on human TLR8 was above 9 µM throughout.
`CCCN(Cc1ccc(CN)cc1)C(=O)C1=Cc2ccccc2N=C(N)C1` [Bz-59]: the EC50 at human TLR7 is above 9 µM.
In the case of `CCCN(CCOC)C(=O)C1=Cc2ccc(-c3cccc(S(=O)(=O)N4CC(CO)C4)c3)cc2N=C(N)C1` [Bz-60], on human TLR7, the EC50 is above 9 µM.
Regarding `CCCN(CCc1ccc(OC)cc1)C(=O)C1=Cc2ccc(-c3cccc(S(=O)(=O)N4CC(CN)C4)c3)cc2N=C(N)C1` [Bz-61], the EC50 was above 9 µM on human TLR7 and 5.85 µM at human TLR8.
The like results for `CCCN(Cc1ccc(CN(C)C)cc1)C(=O)C1=Cc2ccc(-c3cccc(S(=O)(=O)N4CC(CN)C4)c3)cc2N=C(N)C1` [Bz-62] were, in that order, above 9 µM and above 9 µM.
Regarding `CCCN(CCC)C(=O)C1=Cc2ccc(C(=O)COC)cc2N=C(N)C1` [Bz-65], the half-maximal effective concentration (EC50) at human TLR7 came to 3.93 µM; at human TLR8, 5.9 µM.
`CCCN(NCC)C(=O)C1=Cc2ccc(-c3cccc(S(=O)(=O)N4CC(CO)C4)c3)cc2N=C(N)C1` [Bz-71]: on human TLR7, the EC50 was above 9 µM.
`CCCN(CCC)C(=O)C1=Cc2ccc(CCCCCN)cc2N=C(N)C1` [Bz-74]: on human TLR7, the EC50 is above 9 µM.
The same measure, in the same setting: the same measure for `CCCN(CCC(F)(F)F)C(=O)C1=Cc2ccc(C(=O)Nc3ccccc3)cc2N=C(N)C1` [Bz-75]: above 9 µM.

The term EC50 denotes the concentration needed to bring the measured effect to its halfway point.
